These results are taken from patent US9410958B2, “Alkyne-activated fluorogenic azide compounds and methods of use thereof” (The Regents of the University of California, priority 2014, dated 2016).

Structures are written as SMILES. “Also recorded” adds a separate entry of the source. Read-outs that look alike come from different tables or passages of the source. Marks after values point to notes of the source that are not given here.

Series [1] in a line: Photophysical properties and fluorescence quantum yields of Si-rhodamines in PBS pH 7.4. In kind it is physicochemical. As to conditions: for Φfl: cresyl violet in methanol as standard. As to the method:
The fluorescence quantum yields of the purified amino, azido, and triazolyl Si-rhodamines were measured in pH 7.4 phosphate buffered saline (PBS) using cresyl violet in methanol (Φfl=0.54) as a standard (Table 1). […] The best candidate of the four, 8-azidonaphthyl-substituted Si-rhodamine 1, afforded only a 5-fold increase in fluorescence quantum yield as compared with the 29-fold enhancement observed with the corresponding fluorescein.
Fluorescence quantum yields were measured by creating 2 mM stocks of dyes in MeOH. The dyes were then diluted to 20 μM in PBS, then further diluted in PBS to various final concentrations. The absorbance and emission spectra of five different concentrations of dye were measured while keeping maximum absorbance under 0.2. Solutions of probe were excited at 600 nm, and emission was integrated from 600 to 800 nm. Plotting integrated emission vs. absorbance at 600 nm yielded a line, whose slope corresponds to the fluorescence quantum yield. Absolute quantum yields were determined by comparison with the slope of the line measured for cresyl violet in MeOH (Φfl=0.54). The reported quantum yields are the average of three sets of measurements. Absorbance spectra were recorded on a Varian Cary 50 UV-Visible spectrophotometer. Fluorescence spectra were recorded on a Photon Technology International Quanta Master 4 L-format scanning spectrofluorometer equipped with an LPS-220B 75-W xenon lamp and power supply, A-1010B lamp housing with an integrated igniter, switchable 814 photon counting/analog photomultiplier detection unit, and MD5020 motor driver. Measurements were made in 1 cm×0.4 cm quartz cuvettes with a total sample volume of 1 mL.

For series [2] the following is noted: data from Shieh et al. 2014; cited from earlier work.
The subject of a further series is HEK 293T cells. The series can be described thus: No-wash live cell surface labeling and mitochondrial co-staining, HEK 293T. The note with it: HEK 293T.
The test system of a further series is CHO K1 cells. Put plainly: No-wash cell surface labeling of SiaNAl residues, CHO K1. The class given is cell-based. On the procedure:
Si-rhodamine 10 was evaluated as a reagent for imaging SiaNAl residues on live cell surfaces. CHO K1 cells were incubated with 50 μM Ac4ManNAl for 3 days, washed, and then incubated with 5 μM 10, 50 μM CuSO4, 300 μM BTTAA, and 1 mM sodium ascorbate. […] Cell-surface glycan labeling was visualized as it occurred in real time (FIG. 14). Background labeling was minimal on control cells treated with N-acetylmannosamine (Ac4ManNAc) (FIG. 13).

Setting [3] is: increase (↑), triazole relative to the azide.
Where [4] appears, read: decrease (↓), amine relative to the azide.

Protocol for HEK 293T cells: Cells were grown in 8-well Lab-Tek Chambered Coverglass systems in media (HAM-F12 for CHO K1 cells, DMEM for HEK 293T cells) containing 10% fetal bovine serum, penicillin/streptomycin, and either 50 μM Ac4ManNAl or Ac4ManNAc for 3 d at 37° C., as described previously. The cells were then washed with 3×300 μL PBS, then incubated with 100 μL freshly prepared click solution. Click solution comprised of 50 μM CuSO4, 300 μM BTTAA, 2.5 mM sodium ascorbate, and 5 μM azido Si-rhodamine. This was prepared by first adding 0.5 μL 50 mM CuSO4 in H2O and 3 μL 50 mM BTTAA in H2O to 481.5 μL PBS. Next, 12.5 μL freshly prepared 100 mM sodium ascorbate in PBS was added. Finally, 2.5 μL 1 mM azido Si-rhodamine in 4:1 PBS/MeOH was added. After 15 min, the reactions were quenched with the addition of 1 μL of 100 mM bathocuproine disulfonate (BCS) in H2O (final concentration 1 mM). […] For real-time imaging, images were acquired as the labeling progressed without quenching the reaction.
HEK 293T cells were grown in a LabTek 8-well chambered glass slide in DMEM containing fetal bovine serum, penicillin/streptomycin for 3 d at 37° C. The cells were then incubated with 100 nM MitoTracker Green FM and 1 μg/mL Hoechst 33342 in fresh media for 30 min at 37° C., then media removed and the cells incubated with 100 μL PBS containing 5 μM 10. The cells were then directly imaged.
The CalFluors' performance in no-wash cell imaging experiments was evaluated. Using established methods, cell-surface glycoconjugates were metabolically labeled with peracetylated N-pentynoyl mannosamine (Ac4ManNAl), which introduces terminal alkyne groups into sialic acid residues (SiaNAl). HEK 293T cells treated in this fashion were then incubated, without fixation, with a cocktail containing 50 μM CuSO4, 300 μM BTTAA, 5 mM sodium ascorbate and 10 μM CalFluor dye.
Cells were grown with 50 μM Ac4ManNAl or Ac4ManNAc for 3 days, then subjected to click labeling with CalFluor probes. (A) Labeling glycoproteins on live cell surfaces. Cells were treated with 10 μM azide probe, 50 μM CuSO4, 300 μM BTTAA ligand, and 5 mM sodium ascorbate. The reaction was quenched with 1 mM BCS and the cells imaged without further wash steps. (B) Labeling glycoproteins on fixed cells. Cells were fixed with 3% paraformaldehyde, then treated with 10 μM CalFluor probe, 1 mM CuSO4, 100 μM TBTA ligand, and 2 mM sodium ascorbate. 0.1 mg/mL BSA was added to prevent the TBTA from precipitating over the course of the reaction.

Consider `COc1cc(C)c(C2=C3C=CC(=[N+](C)C)C=C3[Si](C)(C)c3cc(N(C)C)ccc32)cc1-n1cc(CCC(=O)NCCO)nn1` [Compound 7-triazole], for which, in series [1], the λabs is 652 nm, the λem is given as 666 nm and the Φfl was 0.25. For the same molecule, the “Change in Φfl” value in series [1] (setting [3]) was 3.7-fold ↑.
In series [1], `CN(C)c1ccc2c(c1)[Si](C)(C)C1=CC(=[N+](C)C)C=CC1=C2c1cc(N)ccc1N1CCOCC1` [Compound 3-NH2] returned a λabs of 650 nm, a λem of 672 nm and a Φfl of 0.00096. The “Change in Φfl” value in series [1] (setting [4]) is on record as 1.4-fold ↓.
As for `COc1cc(N=[N+]=[N-])cc(C2=C3C=CC(=[N+](C)C)C=C3[Si](C)(C)c3cc(N(C)C)ccc32)c1OC` [Compound 6-N3], in series [1], the λabs is on record as 654 nm, the λem stood at 669 nm and the Φfl was 0.039.
The corresponding values for `CN(C)c1ccc2c(c1)[Si](C)(C)C1=CC(=[N+](C)C)C=CC1=C2c1cc(N=[N+]=[N-])ccc1N1CCOCC1` [Compound 3-N3] are 656 nm, 667 nm and 0.0014.
As for `CN(C)c1ccc2c(c1)[Si](C)(C)C1=CC(=[N+](C)C)C=CC1=C2c1cc(-n2cc(CCC(=O)NCCO)nn2)cc2[nH]ccc12` [Compound 4-triazole], in series [1], the λabs was 654 nm, the λem was found to be 668 nm and the Φfl is 0.0088. Further, the “Change in Φfl” value in series [1] (setting [3]) is 1.8-fold ↑.
In series [1], `COc1cc(N)c(OC)c(C2=C3C=CC(=[N+](C)C)C=C3[Si](C)(C)c3cc(N(C)C)ccc32)c1` [Compound 8-NH2] had a λabs of 654 nm, a λem of 672 nm and a Φfl of 0.0012. Moreover, the “Change in Φfl” value in series [1] (setting [4]) was 41-fold ↓.
In series [1], `COc1ccc(N=[N+]=[N-])cc1C1=C2C=CC(=[N+](C)C)C=C2[Si](C)(C)c2cc(N(C)C)ccc21` [Compound 2-N3] had a λabs of 653 nm, a λem of 667 nm and a Φfl of 0.081.
Take `COc1cc(OC)c(-n2cc(CCC(=O)NCCO)nn2)cc1C1=C2C=CC(=[N+](C)C)C=C2[Si](C)(C)c2cc(N(C)C)ccc21` [2 triazole]: in series [2], the Enhancement is 48x^a, the Φfl is 0.20^a, the λem is recorded as 668 nm^a and the λmax is 665 nm^a.
In series [1], `COc1ccc(-n2cc(CCC(=O)NCCO)nn2)cc1C1=C2C=CC(=[N+](C)C)C=C2[Si](C)(C)c2cc(N(C)C)ccc21` [Compound 2-triazole] registered a λabs of 655 nm, a λem of 669 nm and a Φfl of 0.19. For the same molecule, the “Change in Φfl” value in series [1] (setting [3]) is 2.3-fold ↑.
In series [1], `CN(C)c1ccc2c(c1)[Si](C)(C)C1=CC(=[N+](C)C)C=CC1=C2c1cc(N=[N+]=[N-])cc2[nH]ccc12` [Compound 4-N3] showed a λabs of 660 nm, a λem of 669 nm and a Φfl of 0.0048.
As for `COc1cc(C)c(C2=C3C=CC(=[N+](C)C)C=C3[Si](C)(C)c3cc(N(C)C)ccc32)cc1N=[N+]=[N-]` [Compound 7-N3], in series [1], the λabs came out at 650 nm, the λem came out at 666 nm and the Φfl is listed as 0.066.
With `COCCOCCOCCOc1cc(OCCOCCOCCOC)c(C2=C3C=CC(=[N+](C)C)C=C3[Si](C)(C)c3cc(N(C)C)ccc32)cc1N=[N+]=[N-]` [Compound 10], the “background, intracellular or mitochondrial labeling” value in the series with HEK 293T cells is recorded as “mitochondrial staining; also recorded: punctate fluorescence appeared within the cells almost immediately”. The cell-surface labeling result in the series on CHO K1 cells (Ac4ManNAl-treated CHO K1, no wash, 15 min) is “robust cell-surface labeling”. Moreover, in the series with CHO K1 cells (CHO K1, control or unwanted labeling), the background labeling result is recorded as “minimal”.
`COc1cc(C)c(C2=C3C=CC(=[N+](C)C)C=C3[Si](C)(C)c3cc(N(C)C)ccc32)cc1N` [Compound 7-NH2]: in series [1], the λabs came to 648 nm, the λem is given as 669 nm and the Φfl is on record as 0.0015. The “Change in Φfl” value in series [1] (setting [4]) is 45-fold ↓.
Take `CN(C)c1ccc2c(c1)[Si](C)(C)C1=CC(=[N+](C)C)C=CC1=C2c1cc(N=[N+]=[N-])cc2c1OCCO2` [Compound 5-N3]: in series [1], the λabs is reported as 655 nm, the λem is 668 nm and the Φfl is given as 0.019.
In series [1], `COc1cc(N)cc(C2=C3C=CC(=[N+](C)C)C=C3[Si](C)(C)c3cc(N(C)C)ccc32)c1OC` [Compound 6-NH2] showed a λabs of 652 nm, a λem of 665 nm and a Φfl of 0.00067. Also, the “Change in Φfl” value in series [1] (setting [4]) is 58-fold ↓.
In series [1], `COc1cc(C2=C3C=CC(=[N+](C)C)C=C3[Si](C)(C)c3cc(N(C)C)ccc32)c(OC)c(-n2cc(CCC(=O)NCCO)nn2)c1` [Compound 8-triazole] yielded a λabs of 657 nm, a λem of 671 nm and a Φfl of 0.16. In addition, the “Change in Φfl” value in series [1] (setting [3]) is recorded as 3.2-fold ↑.
Turning to `COc1cc(-n2cc(CCC(=O)NCCO)nn2)cc(C2=C3C=CC(=[N+](C)C)C=C3[Si](C)(C)c3cc(N(C)C)ccc32)c1OC` [Compound 6-triazole], in series [1], the λabs is 656 nm, the λem is reported as 670 nm and the Φfl came out at 0.18. In addition, in series [1] (setting [3]), the “Change in Φfl” value is given as 4.6-fold ↑.
As for `COc1ccc(N)cc1C1=C2C=CC(=[N+](C)C)C=C2[Si](C)(C)c2cc(N(C)C)ccc21` [Compound 2-NH2], in series [1], the λabs is 650 nm, the λem is listed as 669 nm and the Φfl is 0.0025. Further, in series [1] (setting [4]), the “Change in Φfl” value is 32-fold ↓.
With `COc1cc(OC)c(C2=C3C=CC(=[N+](C)C)C=C3[Si](C)(C)c3cc(N(C)C)ccc32)cc1N` [Compound 9-NH2], in series [1], the λabs amounted to 650 nm, the λem turned out to be 664 nm and the Φfl worked out at 0.0014. For the same molecule, the “Change in Φfl” value in series [1] (setting [4]) is recorded as 3.0-fold ↓.
In the case of `CN(C)c1ccc2c(c1)[Si](C)(C)C1=CC(=[N+](C)C)C=CC1=C2c1ccc(N)c2ccccc12` [Compound 1-NH2], in series [1], the λabs amounted to 653 nm, the λem is reported as 669 nm and the Φfl was found to be 0.0016. Also, the “Change in Φfl” value in series [1] (setting [4]) was 24-fold ↓.
In series [1], `CN(C)c1ccc2c(c1)[Si](C)(C)C1=CC(=[N+](C)C)C=CC1=C2c1cc(-n2cc(CCC(=O)NCCO)nn2)cc2c1OCCO2` [Compound 5-triazole] registered a λabs of 656 nm, a λem of 668 nm and a Φfl of 0.18. The “Change in Φfl” value in series [1] (setting [3]) is on record as 9.5-fold ↑.
In series [1], `COc1cc(OC)c(-n2cc(CCC(=O)NCCO)nn2)cc1C1=C2C=CC(=[N+](C)C)C=C2[Si](C)(C)c2cc(N(C)C)ccc21` [Compound 9-triazole] registered a λabs of 655 nm, a λem of 668 nm and a Φfl of 0.20. Also, the “Change in Φfl” value in series [1] (setting [3]) is 48-fold ↑.
In series [1], `COc1cc(N=[N+]=[N-])c(OC)c(C2=C3C=CC(=[N+](C)C)C=C3[Si](C)(C)c3cc(N(C)C)ccc32)c1` [Compound 8-N3] registered a λabs of 655 nm, a λem of 669 nm and a Φfl of 0.051.
`CN(C)c1ccc2c(c1)[Si](C)(C)C1=CC(=[N+](C)C)C=CC1=C2c1cc(N)cc2[nH]ccc12` [Compound 4-NH2]: in series [1], the λabs is given as 650 nm, the λem was determined as 673 nm and the Φfl was determined as 0.00088. Also, the “Change in Φfl” value in series [1] (setting [4]) is recorded as 5.5-fold ↓.
In series [1], `CN(C)c1ccc2c(c1)[Si](C)(C)C1=CC(=[N+](C)C)C=CC1=C2c1cc(-n2cc(CCC(=O)NCCO)nn2)ccc1N1CCOCC1` [Compound 3-triazole] displayed a λabs of 663 nm, a λem of 676 nm and a Φfl of 0.0015. The “Change in Φfl” value in series [1] (setting [3]) is reported as 1.1-fold ↑.
In the case of `CN(C)c1ccc2c(c1)[Si](C)(C)C1=CC(=[N+](C)C)C=CC1=C2c1cc(N)cc2c1OCCO2` [Compound 5-NH2], in series [1], the λabs was 653 nm, the λem came to 667 nm and the Φfl is 0.00093. Also, the “Change in Φfl” value in series [1] (setting [4]) is recorded as 21-fold ↓.
In series [1], `CN(C)c1ccc2c(c1)[Si](C)(C)C1=CC(=[N+](C)C)C=CC1=C2c1ccc(-n2cc(CCC(=O)NCCO)nn2)c2ccccc12` [Compound 1-triazole] showed a λabs of 656 nm, a λem of 670 nm and a Φfl of 0.19. Moreover, in series [1] (setting [3]), the “Change in Φfl” value is listed as 5.0-fold ↑.
